The nature of series [1]: Oxygen scavenging of hydroquinone/mu-amine, ambient temperature (Example 7). The following applies: Table 8; 60 seconds, 23-25 °C, 103 ppm hydroquinone + 103 ppm mu-amine.
Method: The flask was filled with deionized water which had been stripped of some dissolved oxygen by bubbling nitrogen through a diffuser stone. The pH was adjusted to the desired level with sodium hydroxide. The flask was sealed with a rubber septum, the dissolved oxygen probe and the pH electrode. A magnetic stirrer bar was left in the flask for mixing. The mixer was turned on, and dissolved oxygen and temperature readings were recorded until the dissolved oxygen reached a constant value. Next, the appropriate quantity of additive was injected through the septum using a hypodermic syringe. The initial mole ratio of treatment to dissolved oxygen was determined by weighing feed chemical and measuring the oxygen concentration. […] Dissolved oxygen and temperature readings were then taken at appropriate time intervals.
Using the same apparatus and procedure as described in Example 4 above, oxygen scavenging experiments were performed by injecting 1 ml of stock solution into a glass vessel containing 1070 ml of air-saturated, demineralized water adjusted to the appropriate pH with 7 N sodium hydroxide. The results of these tests are given in Table 8 below in terms of % oxygen removal at 60 seconds. […] The final pH values indicated are for the test water.
Series [2] is described as follows: Test for identification of mu-amines compatible with hydroquinone (Example 6). Set-up: key: An asterisk (*) in a column indicates a positive result. The format is physicochemical. The following applies: for Step 4: Possible mu-Amine / Step 4: Not mu-Amine: 10 g amine, 10 g hydroquinone, 80 g water; for Step 4: Possible mu-Amine: no precipitate after 3 min stirring; for Step 6: Possible mu-Amine: passes unhindered through 5 micron filter; for Step 4: Not mu-Amine: precipitation after 3 min stirring. An excerpt: The steps of this test are as follows:
Step 1: To a 1 pint glass jar which can be equipped with a cover lid add 80.0 grams of demineralized water and 10.0 grams of the amine to be tested.
Step 2: Stir the contents of the jar for one minute, preferably via a magnetic stirrer. If the amine is a solid, stir until complete dissolution into the water is attained.
Step 4: Stir the contents of the jar for three minutes. If precipitation within the jar occurs, then the amine is not a mu-amine. If no precipitate formation within the jar is evident, the amine may possibly be a mu-amine, so proceed to Step 5.
Step 5: Seal the jar and stir vigorously for seven minutes.
Step 6: After stirring, filter the contents of the jar through a 5 micron filter paper via suction. […] If the contents of the jar pass unhindered through the filter paper, the amine may possibly be a mu-amine and Steps 7 and 8 should be performed.
Step 7: Remove a 1.0 ml aliquot from the filtration flask or receiver (i.e., an aliquot of the former jar contents) with a syringe.
Step 8: Inject the contents of the syringe into the room temperature oxygen scavenger apparatus described in Example 4 above which contains air-saturated, demineralized water and sufficient sodium hydroxide to result in a pH 9-10 range in the reaction flask. If at least 70% of the dissolved oxygen initially present in the air-saturated water is removed within one minute after injection, the amine is definitely a mu-amine. If at least 70% of the dissolved oxygen is not removed within one minute, then the amine is not a mu-amine.
Reported below in Table 7 are the results of tests using the above described procedure for various amines. An asterisk (*) in a column indicates a positive result.

A short description of series [3]: Oxygen scavenging of hydroquinone/mu-amine in hot water flow system (Example 8). The following applies: Table 10; 6.7 ppm hydroquinone + 6.7 ppm mu-amine, 78±1 °C, 3-5 psig, 240±10 s, pH 9.7.
From the text: The specific experimental conditions were:
Reaction Time=240±10 seconds
The initial oxygen levels are reported as parts per billion (ppb).
A short description of series [4]: Compatibility of amines with hydroquinone in solution (description). The format is physicochemical. The source says: To provide convenient single-drum treatments, it was decided to test-formulate various dioxo aromatic compounds with neutralizing amines.
In the next series the test system is rats. The following applies: conclusion from Table 4; cited from earlier work.
For series [5] the following is noted: for mu-amine required to effect dissolution: added to saturated aqueous hydroquinone (10.0 g hydroquinone, 89.5 g water). How it is done:
Volumes of mu-amines required to effect dissolution were recorded and converted to weights via density.

Series [6] in a line: Dissolution and storage stability of hydroquinone/methoxypropylamine solutions (Example 11). The format is physicochemical. On the procedure:
The following 25 gram solutions were prepared and sealed in glass bottles (components listed in order of addition):
Fifty (50) grams of each of the following solutions were prepared in glass bottles, sealed and placed on a shaker for two hours: […]

For series [7] the following is noted: hydroquinone alone in water; cited from earlier work.
For series [8] the following is noted: conclusion from Table 6; cited from earlier work.
For series [9] the following is noted: for % O2 Removed: 60 s.
Method: (§1) The stock solution concentrations are presented in terms of weight % aqueous. The stock solutions were each 100 grams total. […] The tests were conducted at ambient temperature (23°-25° C.).
The tests were conducted at ambient temperature (23°-25° C.).
The conditions of series [10]: cited from earlier work.
For series [11] the following is noted: cited from earlier work; for % O2 Removed: Table 1, 78±3 °C, 4±1 psig, about 4 min, feedwater 58-100 ppm, initial O2 1.8-2.3 ppm; for oxygen scavenging in the test water: conclusion from Table 1.
The conditions of series [12]: cited from earlier work; for % O2 Removed, 1 Minute: hydroquinone: pH 8.6, 22.5 °C, 0.94 mole/mole O2.
A short description of series [13]: Oxygen scavenging at various concentrations and weight ratios of hydroquinone and mu-amine (Example 9).
Method: Using the same apparatus and procedure as described in Example 4 above, oxygen scavenging experiments were performed by injecting 1 ml of stock solution into a glass vessel containing 1070 ml of air-saturated, demineralized water adjusted to the appropriate pH with 7 N sodium hydroxide. […] The final pH values indicated are for the test water.
as §1
Series [14] can be described thus: Thermal stability of amines (description). Type of series: physicochemical. The following applies: of the amines tested.
The conditions of series [15]: high pressures; cited from earlier work.
For series [16] the following is noted: cited from earlier work. The source holds these as a separate data set.
Setting [17] is: hydrazine: pH 9.2, 26.5 °C, 10.5 mole/mole O2.
Setting [18] is: 1.5% mu-amine, 10.0% hydroquinone (6.67:1).
Setting [19] is: 90.0% mu-amine, 10.0% hydroquinone (1:9).

Values joined by “and” are separate entries in the source; they are usually repeats but may differ in a detail not shown here. Equal values may be shown once. Read-outs that look alike come from different tables or passages of the source.

Turning to `NCCN` [Ethylenediamine], the “% O2 Removed” value in series [1] amounted to 85%. Besides, in [2], the “Step 4: Possible mu-Amine” value was “*” and the “Step 6: Possible mu-Amine” value is “*”.
For the compound `CC(O)CN` (stereo not drawn) [Monoisopropanolamine], the “% O2 Removed” value in [3] is listed as 98%. Also, in series [2], the “Step 4: Possible mu-Amine” value is “*” and the “Step 6: Possible mu-Amine” value was “*”.
For the compound `NC1CCCCC1` [Cyclohexylamine, reference compound], the “compatibility with hydroquinone in solution” value (“compatibility” below) in series [4] is listed as “precipitated out of solution”. Also, the “Step 4: Not mu-Amine” value in [2] is “*”.
Take `Oc1ccc(O)cc1` [hydroquinone]: the toxicity versus hydrazine result with rats is given as “significantly less toxic as compared to hydrazine”. Also, the Dissolution time in series [5] (6.3 g hydroquinone in 89.5 g demineralized water, solutions #1, #2, #3) was 23 min and 19 min and 21 min. For the same compound, in series [5] (10.0 g hydroquinone in neat MOPA), the “MOPA required to dissolve hydroquinone” value is 12.5 grams. In addition, the “active hydroquinone concentration attainable in stable aqueous solution” value in [6] (1 to 1 with methoxypropylamine, sealed storage 12 days) was “up to 40%”. For the same compound, the aqueous hydroquinone solubility entry in [7] is recorded as “about 7%”. Further, in [8], the “thermal stability versus hydrazine” value is “superior thermal stability”. Moreover, the “% O2 Removed” value was determined as 9% in series [9] (0 methoxypropylamine, 1.0% hydroquinone); 17% in [9] (0 methoxypropylamine, 3.0% hydroquinone); 27% in [9] (0 methoxypropylamine, 6.0% hydroquinone); 10% in series [9] (1.0% methoxypropylamine, 1.0% hydroquinone); 78% in [9] (1.0% methoxypropylamine, 6.0% hydroquinone); 74% in series [9] (3.0% methoxypropylamine, 3.0% hydroquinone). Also, the “% O2 Removed” value was 17% in [9] (6.0% methoxypropylamine, 1.0% hydroquinone); 93% in series [9] (6.0% methoxypropylamine, 6.0% hydroquinone); 88% in series [10] (1.9 ppm actives, pH 8.4, steam load 15, initial O2 8.0 ppb); 90% in [10] (1.9 ppm actives, pH 8.4, steam load 15, initial O2 10.0 ppb); 97% in series [11]. The “effect of mu-amine addition on oxygen scavenging efficacy” value in series [9] (conclusion from Table 12) was “increases the oxygen scavenging efficacy”. For the same compound, the “efficacy in treating boiler feedwater” value in [10] (conclusion from Tables 2 and 3) is “efficacious in treating boiler feedwater and compared favorably with hydrazine”. Besides, in [11], the “oxygen scavenging in the test water” value is recorded as “at least equivalent to, if not better than, hydrazine”. In series [12] (conclusion from Table 5), the “reactivity at low temperature with oxygen versus hydrazine” value was “superiority of hydroquinone, as compared to hydrazine”. In addition, the “% O2 Removed, 1 Minute” value in series [12] (setting [17]) is 29%.
On to `COCCCN` [Methoxypropylamine], for which, in [5], the “mu-amine required to effect dissolution” value is reported as 1.7 grams. In addition, the “% O2 Removed At 60 Seconds” value is reported as 96% in series [13] (setting [18]); 96% in [13] (2.0% mu-amine, 10.0% hydroquinone (5:1)); 96% in series [13] (3.0% mu-amine, 10.0% hydroquinone (3.33:1)); 95% in series [13] (15.0% mu-amine, 15.0% hydroquinone (1:1)); 98% in series [13] (20.0% mu-amine, 20.0% hydroquinone (1:1)); 98% in series [13] (30.0% mu-amine, 30.0% hydroquinone (1:1)). For the same compound, the “% O2 Removed At 60 Seconds” value in [13] (40.0% mu-amine, 40.0% hydroquinone (1:1)) was determined as 94%; in series [13] (setting [19]), 94%. Moreover, in [6] (aqueous 10% hydroquinone), the “lowest practical MOPA concentration in the mixture” value was 2%. The “% O2 Removed” value in [3] was 99%. In series [2], the “Step 4: Possible mu-Amine” value is “*”. Further, the “Step 6: Possible mu-Amine” value in series [2] is recorded as “*”. Besides, the thermal stability entry in series [14] is recorded as “most thermally stable”.
Take `Oc1cccc(O)c1` [resorcinol]: in series [11], the “% O2 Removed” value is 0% and the “oxygen scavenging in the test water” value was “ineffective”.
For `CN(C)CCCN` [Dimethylaminopropylamine], in series [5], the “mu-amine required to effect dissolution” value was found to be 1.7 grams. Also, the “% O2 Removed At 60 Seconds” value in series [13] (setting [18]) was found to be 94%; in [13] (30.0% mu-amine, 10.0% hydroquinone (1:3)), 99%; in series [13] (setting [19]), 98%. Also, the “% O2 Removed” value in series [1] was 76%. The “Step 4: Possible mu-Amine” value in series [2] is reported as “*”. The “Step 6: Possible mu-Amine” value in series [2] was “*”.
Turning to `CCC(C)N` (stereo not drawn) [sec-Butylamine], in series [4], the “compatibility” value was “compatible with hydroquinone in solution”. Further, the “% O2 Removed” value in [1] is 74%. In [2], the “Step 4: Possible mu-Amine” value is listed as “*” and the “Step 6: Possible mu-Amine” value is on record as “*”.
As for `C1CN2CCN1CC2` [Triethylenediamine, reference compound], in [2], the “Step 4: Not mu-Amine” value was “*”.
Still for that read-out and setting: with `NCCCCCCN` [Hexamethylenediamine, reference compound] the entry was “*”.
Turning to `O=S([O-])[O-].[Na+].[Na+]` [sodium sulfite], in series [15], the “decomposition in the boiler” value was “decomposes in the boiler to form sulfur dioxide and hydrogen sulfide”.
Consider `C1COCCN1` [Morpholine, reference compound], for which, in series [4], the “compatibility” value is “precipitated out of solution”. The “Step 4: Not mu-Amine” value in series [2] was “*”.
For `NCCNCCNCCN` [Triethylenetetramine], in [1], the “% O2 Removed” value is on record as 89%. Moreover, in series [2], the “Step 4: Possible mu-Amine” value is listed as “*” and the “Step 6: Possible mu-Amine” value is “*”.
As for `CC(O)CNCC(C)O` (stereo not drawn) [Diisopropanolamine], the “% O2 Removed” value in series [1] turned out to be 86%. Moreover, in [2], the “Step 4: Possible mu-Amine” value is “*” and the “Step 6: Possible mu-Amine” value is “*”.
Turning to Dimethyl(iso)propanolamine, the “% O2 Removed” value in series [1] came out at 73%. In addition, in series [2], the “Step 4: Possible mu-Amine” value is given as “*” and the “Step 6: Possible mu-Amine” value was “*”.
`Nc1ccccc1N` [o-phenylenediamine]: in series [11], the “% O2 Removed” value was 10% and the “oxygen scavenging in the test water” value is given as “ineffective”.
For the compound `NCCO` [Monoethanolamine], the “% O2 Removed” value in series [1] stood at 75%. In addition, in series [2], the “Step 4: Possible mu-Amine” value is reported as “*” and the “Step 6: Possible mu-Amine” value is given as “*”.
With `NN` [hydrazine], the “% O2 Removed” value is listed as 69% in [10] (control run 1: 1.6 ppm, pH 8.8, steam load 11, initial O2 13.0 ppb); 50% in [10] (control run 2: 1.1 ppm, pH 9.4, steam load 15, initial O2 4.0 ppb); 60% in [10] (control run 3: 1.2 ppm, pH 8.6, steam load 15, initial O2 6.0 ppb); 55% in [10] (control run 4: 1.0 ppm, pH 8.8, steam load 15, initial O2 5.8 ppb); 31% in series [10] (control run 5: 0.8 ppm, pH 9.4, steam load 11, initial O2 3.5 ppb); 30% in [10] (control run 6: 1.6 ppm, pH 9.6, steam load 14, initial O2 4.0 ppb). In series [16] (in solution, Cohn and Powell 1954), the “pH of maximum oxygen scavenging efficacy” value is listed as 10.0-10.5. In addition, the “rate of reaction with oxygen” value in [16] (low temperatures such as room temperature) is “very slow”. In series [12] (setting [17]), the “% O2 Removed, 5 Minutes” value is on record as 2%. The “% O2 Removed, 1 Minute” value in [12] (setting [17]) is 1%.
As to `Nc1ccc(N)cc1` [p-phenylenediamine], in [11], the “% O2 Removed” value is on record as 35% and the “oxygen scavenging in the test water” value is on record as “ineffective”.
Turning to `CC(C)(C)N` [tert-Butylamine, reference compound], in series [4], the “compatibility” value is on record as “insoluble mass”. Also, in series [2], the “Step 4: Not mu-Amine” value is reported as “*”.

The values are drawn from patent US4289645A (priority 1980, dated 1981).
